Laboratory results from ChEMBL document CHEMBL1151292, “Antineoplastic activity and cytotoxicity of flavones, isoflavones, and flavanones” (1979).
≈ marks a conversion by molar mass, not a printed value. Calls of active or inactive are those of the source. The rule behind the calls is not given here.

What was measured:
L1210 = assay: In vivo antitumor activity against mouse L1210 cells; format: functional, organism-based
CA-755 = assay: In vivo antitumor activity against mouse CA-755 cells; format: functional, organism-based
CCRF S-180 = assay: In vivo antitumor activity against mouse S180 cells; format: functional, organism-based
KB = assay: Cytotoxicity against human KB cells; format: functional; settings: read-out: ED50 (the source's name)

Compound	Activity (L1210)	Activity (CA-755)	Activity (CCRF S-180)	EC50 (KB) [µg/mL]
COc1ccc(C2CC(=O)c3c(cc(OC)c(O)c3OC)O2)cc1 (stereo not drawn)	inactive	inactive	inactive	–
COc1c(OC)c(OC)c2c(c1OC)OC(c1ccc(O)cc1)CC2=O (stereo not drawn)	inactive	inactive	inactive	26 (≈ 72.1 µM)
Nc1c(-c2ccccc2)oc2ccccc2c1=O	inactive	inactive	inactive	> 100
O=C1CC(c2ccccc2)Oc2ccc(Cl)cc21 (stereo not drawn)	inactive	inactive	inactive	1 (≈ 3.87 µM)
COc1cc(OC)c(-c2cc(=O)c3ccccc3o2)cc1Br	–	inactive	inactive	–
Cc1oc2cc(O)ccc2c(=O)c1-c1ccccc1Br	inactive	inactive	inactive	66 (≈ 199 µM)
COc1cc2c(c(OC)c1O)C(=O)CC(c1ccc(O)cc1)O2 (stereo not drawn)	inactive	inactive	inactive	–
COc1cc2c(c(OC)c1OC)C(=O)CC(c1ccc(O)cc1)O2 (stereo not drawn)	inactive	inactive	inactive	–
O=c1cc(-c2cccc([N+](=O)[O-])c2)oc2ccccc12	inactive	inactive	inactive	2 (≈ 7.48 µM)
COc1ccc(-c2cc(=O)c3c(OC)c(O)c(OC)cc3o2)cc1	inactive	inactive	inactive	–
O=C1CC(c2ccc(Cl)cc2Cl)Oc2ccc(Cl)cc21 (stereo not drawn)	inactive	inactive	inactive	–
COc1cc(C)cc2c1OC(c1ccccc1)CC2=O.Cl (stereo not drawn)	inactive	inactive	inactive	26
O=C1CC(c2ccc(Cl)cc2)Oc2ccc(Cl)cc21 (stereo not drawn)	inactive	inactive	inactive	–
COc1ccc(-c2oc3cc(O)cc(O)c3c(=O)c2OC)cc1	inactive	Active	inactive	–
O/N=c1/cc(-c2ccccc2)oc2ccccc12	inactive	–	inactive	–
O=c1cc(-c2ccc(O)cc2)oc2ccccc12	inactive	inactive	inactive	–
CS(=O)(=O)Nc1c(-c2ccccc2)oc2ccccc2c1=O	–	–	inactive	10 (≈ 31.7 µM)
CC(=O)Nc1c(-c2ccccc2)oc2ccccc2c1=O	inactive	inactive	inactive	> 100
O=C1CC(c2ccccc2Cl)Oc2ccccc21 (stereo not drawn)	inactive	inactive	inactive	–
COc1cc2oc(-c3ccc(O)cc3)cc(=O)c2c(OC)c1OC	inactive	inactive	inactive	19 (≈ 57.9 µM)
O=c1cc(-c2ccccc2)oc2ccccc12	inactive	inactive	inactive	–
O=c1cc(-c2ccccc2)oc2c(F)cc(F)cc12	inactive	–	inactive	15 (≈ 58.1 µM)
O=c1c(O)c(-c2ccc(Cl)cc2)oc2cc(O)ccc12	inactive	–	inactive	–
COc1ccc(C2CC(=O)c3c(OC(C)=O)cc(OC(C)=O)cc3O2)cc1OC(C)=O (stereo not drawn)	inactive	inactive	inactive	–

Compound	Activity (L1210)	Activity (CA-755)	Activity (CCRF S-180)	EC50 (KB) [µg/mL]
COc1cc2c(c(O[C@@H]3O[C@H](CO)[C@@H](O)[C@H](O)[C@H]3O)c1)C(=O)CC(c1ccc(O)cc1)O2 (stereo partly drawn)	–	–	inactive	> 100
CS(=O)(=O)NC1C(=O)c2ccccc2OC1c1ccccc1 (stereo not drawn)	inactive	–	inactive	10 (≈ 31.5 µM)
COc1ccc(C2Oc3ccccc3C(=O)C2N)cc1.Cl (stereo not drawn)	–	–	inactive	> 100
COc1ccc(C2CC(=O)c3cc(OC)ccc3O2)cc1 (stereo not drawn)	inactive	inactive	inactive	–
COc1ccc([C@@H]2CC(=O)c3c(O)cc(O[C@@H]4O[C@H](CO[C@@H]5O[C@@H](C)[C@H](O)[C@@H](O)[C@H]5O)[C@@H](O)[C@H](O)[C@H]4O)cc3O2)cc1O	inactive	inactive	inactive	–
COc1cc(O)c2c(=O)c(O)c(-c3ccc(O)c(O)c3)oc2c1	inactive	inactive	inactive	–
COc1ccc2c(c1)C(=O)CC(c1ccccc1)O2 (stereo not drawn)	inactive	inactive	Active	–
Cc1cc(C)c(-c2oc3ccc(Cl)cc3c(=O)c2Cl)c(C)c1	–	–	Active	> 100
COc1ccc(C2CC(=O)c3ccccc3O2)cc1 (stereo not drawn)	inactive	inactive	inactive	–
O=C1c2ccccc2OC(Cl)(c2ccccc2)C1Cl (stereo not drawn)	inactive	inactive	inactive	–
COc1ccc(C2CC(=O)c3ccccc3O2)cc1OC (stereo not drawn)	inactive	inactive	inactive	–
O=C1CC(c2cccc(Cl)c2)Oc2ccccc21 (stereo not drawn)	inactive	Active	inactive	–
COc1ccc(C2CC(=O)c3c(cc(OC)c(OC)c3OC)O2)cc1 (stereo not drawn)	inactive	inactive	inactive	–
O=c1cc(-c2ccc(O)cc2)oc2cc(O[C@@H]3O[C@H](CO)[C@@H](O)[C@H](O)[C@H]3O)cc(O)c12 [APIGETRIN]	–	–	inactive	> 100
COc1cc(C2CC(=O)c3ccccc3O2)ccc1O (stereo not drawn)	inactive	–	inactive	–
COc1ccc([C@@H]2CC(=O)c3c(O)cc(O)cc3O2)cc1O	inactive	inactive	inactive	–
O=C1c2ccccc2OC(c2ccccc2)C1Cl (stereo not drawn)	–	inactive	inactive	–
O=C1CC(c2ccccc2Cl)Oc2ccc(Cl)cc21 (stereo not drawn)	inactive	inactive	inactive	–
O=C1CC(c2ccc(Cl)cc2)Oc2ccccc21 (stereo not drawn)	inactive	inactive	inactive	–
O=C1C[C@@H](c2ccc(O)cc2)Oc2cc(O)cc(O)c21	inactive	–	inactive	–
CCOc1ccc(-c2cc(=O)c3c(OC)c(OC)c(OC)c(OC)c3o2)cc1	inactive	–	inactive	30 (≈ 77.6 µM)
COc1ccc(-c2oc3cc(OC(C)=O)cc(OC(C)=O)c3c(=O)c2OC)cc1	inactive	Active	inactive	–
O=C1C[C@@H](c2ccccc2)Oc2cc(O)cc(O)c21	inactive	inactive	inactive	–
